Results from patent US6737383B1, “Herbicidal oxadiazolidines” (priority 1999, dated 2004).

Assays:
rape = assay: Test B pre/postemergence rape; assay type: in vivo, Brassica napus
Summary of the method: (§1)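 Herbicidal effect was estimated by eye on a ten-point control scale after plants spent twelve to sixteen days in a greenhouse following soil or foliar treatment. Foliar sprays targeted plants at one to four leaves; all doses were formulated in a non-phytotoxic solvent with surfactant.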

purple nutsedge = assay: Test B pre/postemergence purple nutsedge; assay type: in vivo, Cyperus rotundus
Summary of the method: as §1

soybean = assay: Test B pre/postemergence soybean; assay type: in vivo, Glycine max
Summary of the method: as §1

bedstraw = assay: Test B pre/postemergence bedstraw; assay type: in vivo, Galium aparine
Summary of the method: as §1

cocklebur = assay: Test B pre/postemergence cocklebur; assay type: in vivo, Xanthium strumarium
Summary of the method: as §1

duck salad = assay: Test B flood test duck salad; assay type: in vivo, Heteranthera limosa
Summary of the method: (§2)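 Plants were grown to the 2-leaf stage before treatment with test chemical, then held in a greenhouse for twelve to sixteen days. Injury was visually rated against untreated controls on a 0–10 scale, where 0 is no effect and 10 is complete control.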

rice = assay: Test B flood test rice; assay type: in vivo, Oryza sativa
Summary of the method: as §2

smallflower flatsedge = assay: Test B flood test smallflower flatsedge; assay type: in vivo, Cyperus difformis
Summary of the method: as §2

wild oat = assay: Test B pre/postemergence wild oat; assay type: in vivo, Avena fatua; conditions: for Plant response rating, Wild oats: Rate 250 g/ha
Summary of the method: as §1

corn = assay: Test B pre/postemergence corn; assay type: in vivo, Zea mays
Summary of the method: as §1

giant foxtail = assay: Test B pre/postemergence giant foxtail; assay type: in vivo, Setaria faberii
Summary of the method: as §1

velvetleaf = assay: Test B pre/postemergence velvetleaf; assay type: in vivo, Abutilon theophrasti; conditions: for Plant response rating, Velvetleaf: Rate 250 g/ha
Summary of the method: as §1

wheat = assay: Test B pre/postemergence wheat; assay type: in vivo, Triticum aestivum; conditions: for Plant response rating, Wheat: Rate 250 g/ha
Summary of the method: as §1

pigweed = assay: Test B pre/postemergence pigweed; assay type: in vivo, Amaranthus retroflexus
Summary of the method: as §1

sugar beet = assay: Test B pre/postemergence sugar beet; assay type: in vivo, Beta vulgaris; conditions: for Plant response rating, Sugarbeets: Rate 250 g/ha
Summary of the method: as §1

surinam grass = assay: Test B pre/postemergence surinam grass; assay type: in vivo, Brachiaria decumbens
Summary of the method: as §1

[1] = Postemergence, Rate 62 g/ha, scale 0 to 10, 0 is no effect, 10 is complete control
[2] = Postemergence, Rate 125 g/ha, scale of 0 to 10 where 0 is no effect and 10 is complete control
[3] = Postemergence, Rate 250 g/ha, scale 0 to 10, 0 no effect, 10 complete control
[4] = Preemergence, Rate 62 g/ha, scale 0 to 10 (0 no effect, 10 complete control)
[5] = Preemergence, Rate 125 g/ha, scale 0 to 10 (0 no effect, 10 complete control)
[6] = Preemergence, Rate 250 g/ha, scale of 0 to 10 where 0 is no effect and 10 is complete control
[7] = Preemergence, Rate 500 g/ha, scale 0 (no effect) to 10 (complete control)
[8] = Rate 500 g/ha, Postemergence, scale 0 to 10, 0 no effect, 10 complete control
[9] = Rate 250 g/ha, Postemergence, scale 0 to 10, 0 is no effect, 10 is complete control
[10] = Rate 125 g/ha, Postemergence, scale 0 to 10, 0 no effect, 10 complete control
[11] = Postemergence (flood test species), Rate 125 g/ha, scale of 0 to 10 where 0 is no effect and 10 is complete control
[12] = Rate 500 g/ha, listed under Postemergence (flood test species), scale 0 to 10, 0 no effect, 10 complete control
[13] = Rate 250 g/ha, Postemergence (flood test), scale 0 to 10, 0 is no effect, 10 is complete control
[14] = Preemergence, Rate 125 g/ha, 0 is no effect, 10 is complete control
[15] = Preemergence, scale of 0 to 10 where 0 is no effect and 10 is complete control
[16] = Postemergence, scale 0 to 10, 0 is no effect, 10 is complete control

Cc1nn(C)c(Cl)c1-n1c(=O)on(C(=O)N(c2ccc(F)cc2)C(C)C)c1=O [Compound 95]
Rape plant response rating (rape; [1]): 0
Rape plant response rating (rape; [2]): 0
Rape plant response rating (rape; [3]): 0
Rape plant response rating (rape; [4]): 0
Plant response rating, Rape (rape; [5]): 0
Plant response rating, Rape (rape; [6]): 3
Rape plant response rating (rape; [7]): 3
Rape plant response rating (rape; [8]): 0
Nutsedge plant response rating (purple nutsedge; [1]): 0
Nutsedge plant response rating (purple nutsedge; [2]): 0
Nutsedge plant response rating (purple nutsedge; [3]): 0
Nutsedge plant response rating (purple nutsedge; [4]): 0
Plant response rating, Nutsedge (purple nutsedge; [5]): 0
Plant response rating, Nutsedge (purple nutsedge; [6]): 0
Nutsedge plant response rating (purple nutsedge; [7]): 0
Nutsedge plant response rating (purple nutsedge; [8]): 0
Soybean plant response rating (soybean; [1]): 1
Soybean plant response rating (soybean; [2]): 1
Soybean plant response rating (soybean; [4]): 0
Plant response rating, Soybean (soybean; [5]): 0
Plant response rating, Soybean (soybean; [6]): 0
Soybean plant response rating (soybean; [7]): 0
Plant response rating, Soybean (soybean; [9]): 1
Soybean plant response rating (soybean; [8]): 1
Bedstraw plant response rating (bedstraw; [1]): 0
Bedstraw plant response rating (bedstraw; [3]): 0
Bedstraw plant response rating (bedstraw; [4]): 0
Plant response rating, Bedstraw (bedstraw; [5]): 0
Plant response rating, Bedstraw (bedstraw; [6]): 0
Bedstraw plant response rating (bedstraw; [7]): 0
Bedstraw plant response rating (bedstraw; [10]): 0
Bedstraw plant response rating (bedstraw; [8]): 2
Cocklebur plant response rating (cocklebur; [1]): 0
Cocklebur plant response rating (cocklebur; [2]): 0
Cocklebur plant response rating (cocklebur; [3]): 1
Cocklebur plant response rating (cocklebur; [4]): 0
Plant response rating, Cocklebur (cocklebur; [5]): 0
Plant response rating, Cocklebur (cocklebur; [6]): 0
Cocklebur plant response rating (cocklebur; [7]): 0
Cocklebur plant response rating (cocklebur; [8]): 2
Ducksalad plant response rating (duck salad; [11]): 0
Ducksalad plant response rating (duck salad; [1]): 0
Ducksalad plant response rating (duck salad; [12]): 0
Ducksalad plant response rating (duck salad; flood test, listed under Postemergence, Rate 250 g/ha, scale 0 to 10, 0 no effect, 10 complete control): 0
Rice plant response rating (rice; [11]): 0
Rice plant response rating (rice; [1]): 0
Plant response rating, Rice (rice; [13]): 2
Rice plant response rating (rice; [12]): 4
S. Flatsedge plant response rating (smallflower flatsedge; [11]): 0
S. Flatsedge plant response rating (smallflower flatsedge; [1]): 0
Plant response rating, S. Flatsedge (smallflower flatsedge; [13]): 0
S. Flatsedge plant response rating (smallflower flatsedge; [12]): 5
Wild oats plant response rating (wild oat; [1]): 0
Wild oats plant response rating (wild oat; [2]): 0
Wild oats plant response rating (wild oat; [4]): 0
Wild oats plant response rating (0 to 10 scale) (wild oat; [14]): 0
Plant response rating, Wild oats (wild oat; [15]): 2
Wild oats plant response rating (wild oat; [7]): 5
Plant response rating, Wild oats (wild oat; [16]): 0
Wild oats plant response rating (wild oat; [8]): 3
Corn plant response rating (corn; [1]): 0
Corn plant response rating (corn; [2]): 0
Corn plant response rating (corn; [3]): 0
Corn plant response rating (corn; [4]): 0
Plant response rating, Corn (corn; [5]): 0
Plant response rating, Corn (corn; [6]): 0
Corn plant response rating (corn; [7]): 0
Corn plant response rating (corn; [8]): 0
Giant foxtail plant response rating (giant foxtail; [1]): 0
Giant foxtail plant response rating (giant foxtail; [2]): 0
Giant foxtail plant response rating (giant foxtail; [3]): 1
Giant foxtail plant response rating (giant foxtail; [4]): 2
Plant response rating, Giant foxtail (giant foxtail; [5]): 4
Plant response rating, Giant foxtail (giant foxtail; [6]): 7
Giant foxtail plant response rating (giant foxtail; [7]): 8
Giant foxtail plant response rating (giant foxtail; [8]): 6
Velvetleaf plant response rating (velvetleaf; [1]): 0
Velvetleaf plant response rating (velvetleaf; [2]): 0
Velvetleaf plant response rating (velvetleaf; [4]): 0
Velvetleaf plant response rating (0 to 10 scale) (velvetleaf; [14]): 0
Plant response rating, Velvetleaf (velvetleaf; [15]): 0
Velvetleaf plant response rating (velvetleaf; [7]): 0
Plant response rating, Velvetleaf (velvetleaf; [16]): 0
Velvetleaf plant response rating (velvetleaf; [8]): 0
Wheat plant response rating (wheat; [1]): 0
Wheat plant response rating (wheat; [2]): 0
Wheat plant response rating (wheat; [4]): 0
Wheat plant response rating (0 to 10 scale) (wheat; [14]): 0
Plant response rating, Wheat (wheat; [15]): 0
Wheat plant response rating (wheat; [7]): 0
Plant response rating, Wheat (wheat; [16]): 0
Wheat plant response rating (wheat; [8]): 0
Redroot pigweed plant response rating (pigweed; [1]): 2
Redroot pigweed plant response rating (pigweed; [2]): 3
Redroot pigweed plant response rating (pigweed; [4]): 5
Plant response rating, Redroot pigweed (pigweed; [5]): 6
Plant response rating, Redroot pigweed (pigweed; [6]): 9
Redroot pigweed plant response rating (pigweed; [7]): 9
Plant response rating, Redroot pigweed (pigweed; [9]): 3
Redroot pigweed plant response rating (pigweed; [8]): 5
Sugarbeets plant response rating (sugar beet; [1]): 2
Sugarbeets plant response rating (sugar beet; [2]): 2
Sugarbeets plant response rating (sugar beet; [4]): 0
Sugarbeets plant response rating (0 to 10 scale) (sugar beet; [14]): 1
Plant response rating, Sugarbeets (sugar beet; [15]): 2
Sugarbeets plant response rating (sugar beet; [7]): 3
Plant response rating, Sugarbeets (sugar beet; [16]): 4
Sugarbeets plant response rating (sugar beet; [8]): 4
B. signalgrass plant response rating (surinam grass; [1]): 0
B. signalgrass plant response rating (surinam grass; [3]): 3
B. signalgrass plant response rating (surinam grass; [4]): 0
Plant response rating, B. signalgrass (surinam grass; [5]): 0
Plant response rating, B. signalgrass (surinam grass; [6]): 3
B. signalgrass plant response rating (surinam grass; [7]): 7
B. signalgrass plant response rating (surinam grass; [10]): 0
B. signalgrass plant response rating (surinam grass; Rate 500 g/ha, Postemergence, scale of 0 to 10 where 0 is no effect and 10 is complete control): 5
